The record followed here is patent publication US7741484B2, “Process for synthesis of phenoxy diaminopyrimidine derivatives” (Roche Palo Alto LLC, priority 2005, dated 2010).

In the experiment the target is T1, rat P2X3 receptor (Rattus norvegicus, UniProt P49654).
T1 construct: expressed in transfected cells; host or cells: CHO-K1
T1 sequence (P49654 1-397): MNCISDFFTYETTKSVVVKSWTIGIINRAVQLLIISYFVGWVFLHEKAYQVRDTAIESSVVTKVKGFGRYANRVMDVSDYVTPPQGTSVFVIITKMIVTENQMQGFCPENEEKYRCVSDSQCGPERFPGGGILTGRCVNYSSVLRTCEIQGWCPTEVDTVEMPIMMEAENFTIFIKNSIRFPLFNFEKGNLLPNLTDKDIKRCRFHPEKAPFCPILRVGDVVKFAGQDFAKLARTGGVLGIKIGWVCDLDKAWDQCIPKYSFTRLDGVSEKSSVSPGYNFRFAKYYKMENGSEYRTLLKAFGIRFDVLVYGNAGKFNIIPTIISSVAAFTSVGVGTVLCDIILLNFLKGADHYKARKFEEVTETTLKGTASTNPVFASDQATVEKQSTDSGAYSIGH
As to the kind of experiment: P2X3 FLIPR (Fluorometric Imaging Plate Reader) assay, inhibition of α,β-meATP-evoked calcium fluorescence. Particulars: CHO-K1 cells transfected with cloned rat P2X3; agonist α,β-meATP 1 μM; Fluo-3 AM; read-out: pIC50 for the P2X3 receptor (converted). The class given is cell-based. Here is the method:
CHO-K1 cells were transfected with cloned rat P2X3 or human P2X2/3 receptor subunits and passaged in flasks. 18-24 hours before the FLIPR experiment, cells were released from their flasks, centrifuged, and resuspended in nutrient medium at 2.5×10^5 cells/ml. The cells were aliquoted into black-walled 96-well plates at a density of 50,000 cells/well and incubated overnight in 5% CO2 at 37° C. On the day of the experiment, cells were washed in FLIPR buffer (calcium- and magnesium-free Hank's balanced salt solution, 10 mM HEPES, 2 mM CaCl2, 2.5 mM probenecid; FB). Each well received 100 μl FB and 100 μl of the fluorescent dye Fluo-3 AM [2 μM final conc.]. […]
Test compounds (dissolved in DMSO at 10 mM and serially diluted with FB) or vehicle were added to each well (25 μl of a 4× solution) and allowed to equilibrate for 20 minutes at room temperature. The plates were then placed in the FLIPR and a baseline fluorescence measurement (excitation at 488 nm and emission at 510-570 nm) was obtained for 10 seconds before a 100 μl/well agonist or vehicle addition. […] Fluorescence was measured for an additional 2 minutes at 1 second intervals after agonist addition. A final addition of ionomycin (5 μM, final concentration) was made to each well of the FLIPR test plate to establish cell viability and maximum fluorescence of dye-bound cytosolic calcium. […]

As for `COc1cc(C(C)C)c(Oc2cnc(N)nc2N)cc1I` [5-(5-Iodo-2-isopropyl-4-methoxy-phenoxy)-pyrimidine-2,4-diamine], the IC50 was around 10 nM.
